Activity calls are given as the source filed them. The calls are words filed in the database; no cut-off is given here.
Legend:
[1] = target: T1, Adenosine receptor A3 (Homo sapiens) (UniProt P0DMS8); experiment: Inhibition of human recombinant A3 receptor at 10 uM by radioligand binding assay
T1 sequence (whole entry): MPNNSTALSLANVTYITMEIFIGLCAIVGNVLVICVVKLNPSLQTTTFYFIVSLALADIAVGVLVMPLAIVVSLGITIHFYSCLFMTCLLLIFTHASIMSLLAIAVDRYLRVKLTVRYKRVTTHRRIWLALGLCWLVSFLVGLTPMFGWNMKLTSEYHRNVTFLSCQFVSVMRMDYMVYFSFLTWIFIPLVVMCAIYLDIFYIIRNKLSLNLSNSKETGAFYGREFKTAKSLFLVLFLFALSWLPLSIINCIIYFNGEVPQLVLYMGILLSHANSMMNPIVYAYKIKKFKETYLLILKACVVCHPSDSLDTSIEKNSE

[2] = target: Adrenergic receptor alpha-2 (Homo sapiens) (UniProt P08913+P18825+P18089); experiment: Inhibition of human recombinant alpha2 receptor at 10 uM by radioligand binding assay
[3] = target: Beta-1 adrenergic receptor (Homo sapiens) (UniProt P08588); experiment: Inhibition of human recombinant beta1 receptor at 10 uM by radioligand binding assay
Chain of Beta-1 adrenergic receptor (Homo sapiens) (P08588 whole entry, looked up): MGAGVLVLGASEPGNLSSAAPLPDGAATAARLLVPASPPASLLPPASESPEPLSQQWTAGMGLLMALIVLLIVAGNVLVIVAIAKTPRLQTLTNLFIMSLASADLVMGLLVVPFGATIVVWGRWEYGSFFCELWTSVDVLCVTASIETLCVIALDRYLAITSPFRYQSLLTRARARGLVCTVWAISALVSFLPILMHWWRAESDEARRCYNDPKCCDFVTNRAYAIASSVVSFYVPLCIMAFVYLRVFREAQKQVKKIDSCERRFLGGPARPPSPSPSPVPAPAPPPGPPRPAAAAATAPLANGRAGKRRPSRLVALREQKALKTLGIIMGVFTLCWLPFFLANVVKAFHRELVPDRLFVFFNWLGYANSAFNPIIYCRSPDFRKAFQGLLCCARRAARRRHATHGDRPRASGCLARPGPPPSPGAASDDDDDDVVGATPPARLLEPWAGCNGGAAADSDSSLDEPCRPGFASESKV

[4] = target: T2, Type-1 angiotensin II receptor (Homo sapiens) (UniProt P30556); experiment: Inhibition of human recombinant AT1 receptor at 10 uM by radioligand binding assay
T2 sequence (whole entry): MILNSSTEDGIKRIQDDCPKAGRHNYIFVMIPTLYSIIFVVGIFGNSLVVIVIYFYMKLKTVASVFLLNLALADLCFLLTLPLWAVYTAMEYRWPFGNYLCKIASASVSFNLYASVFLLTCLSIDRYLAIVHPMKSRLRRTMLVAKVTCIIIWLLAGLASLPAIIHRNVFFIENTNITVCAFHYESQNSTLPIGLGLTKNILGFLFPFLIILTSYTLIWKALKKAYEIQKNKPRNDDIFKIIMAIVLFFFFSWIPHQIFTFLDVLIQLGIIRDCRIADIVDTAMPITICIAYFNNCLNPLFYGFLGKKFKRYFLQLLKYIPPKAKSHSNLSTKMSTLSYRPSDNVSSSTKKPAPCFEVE

[5] = target: D(1A) dopamine receptor (Homo sapiens) (UniProt P21728); experiment: Inhibition of human recombinant D1 receptor at 10 uM by radioligand binding assay
Chain of D(1A) dopamine receptor (Homo sapiens) (P21728 whole entry): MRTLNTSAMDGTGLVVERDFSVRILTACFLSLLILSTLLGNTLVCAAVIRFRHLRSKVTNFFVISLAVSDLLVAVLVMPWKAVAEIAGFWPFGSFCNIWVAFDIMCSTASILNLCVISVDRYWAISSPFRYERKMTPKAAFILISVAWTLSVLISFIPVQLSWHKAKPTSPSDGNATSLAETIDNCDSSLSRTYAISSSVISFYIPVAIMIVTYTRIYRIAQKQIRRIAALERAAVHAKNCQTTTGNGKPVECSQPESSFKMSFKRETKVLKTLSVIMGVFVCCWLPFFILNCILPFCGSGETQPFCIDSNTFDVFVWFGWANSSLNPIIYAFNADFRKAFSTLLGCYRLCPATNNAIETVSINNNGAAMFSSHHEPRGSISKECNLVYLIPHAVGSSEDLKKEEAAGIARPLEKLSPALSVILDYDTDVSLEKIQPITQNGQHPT

Homo sapiens [6] = organism: Homo sapiens; experiment: Inhibition of human recombinant GABA receptor at 10 uM by radioligand binding assay
[7] = target: Histamine H2 receptor (Homo sapiens) (UniProt P25021); experiment: Inhibition of human recombinant H2 receptor at 10 uM by radioligand binding assay
Chain of Histamine H2 receptor (Homo sapiens) (P25021 whole entry): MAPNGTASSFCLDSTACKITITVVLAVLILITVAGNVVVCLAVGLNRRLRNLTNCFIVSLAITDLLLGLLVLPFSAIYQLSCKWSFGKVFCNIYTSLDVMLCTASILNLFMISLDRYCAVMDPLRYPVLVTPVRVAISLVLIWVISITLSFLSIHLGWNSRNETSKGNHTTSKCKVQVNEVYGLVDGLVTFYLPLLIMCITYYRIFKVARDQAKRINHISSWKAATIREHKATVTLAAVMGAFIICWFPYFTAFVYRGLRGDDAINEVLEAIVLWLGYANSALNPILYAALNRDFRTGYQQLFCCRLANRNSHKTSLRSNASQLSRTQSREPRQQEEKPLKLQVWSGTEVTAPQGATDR

[8] = target: T3, Muscarinic acetylcholine receptor M1 (Homo sapiens) (UniProt P11229); experiment: Inhibition of human recombinant M1 receptor at 10 uM by radioligand binding assay
T3 sequence (whole entry): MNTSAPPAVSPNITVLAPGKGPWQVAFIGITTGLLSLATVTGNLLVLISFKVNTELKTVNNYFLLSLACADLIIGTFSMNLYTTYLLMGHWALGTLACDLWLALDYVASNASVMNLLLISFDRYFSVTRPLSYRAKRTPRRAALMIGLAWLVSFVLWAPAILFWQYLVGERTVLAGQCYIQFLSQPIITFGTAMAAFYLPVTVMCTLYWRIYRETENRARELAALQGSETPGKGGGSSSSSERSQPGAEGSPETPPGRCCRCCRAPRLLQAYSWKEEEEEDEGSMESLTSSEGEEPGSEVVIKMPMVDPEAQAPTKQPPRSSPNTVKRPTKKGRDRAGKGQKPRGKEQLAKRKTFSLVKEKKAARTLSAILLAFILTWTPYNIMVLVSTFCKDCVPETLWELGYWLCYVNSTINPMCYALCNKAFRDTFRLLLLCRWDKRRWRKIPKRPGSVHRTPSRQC

[9] = target: T4, Substance-K receptor (Homo sapiens) (UniProt P21452); experiment: Inhibition of human recombinant NK2 receptor at 10 uM by radioligand binding assay
T4 sequence (whole entry): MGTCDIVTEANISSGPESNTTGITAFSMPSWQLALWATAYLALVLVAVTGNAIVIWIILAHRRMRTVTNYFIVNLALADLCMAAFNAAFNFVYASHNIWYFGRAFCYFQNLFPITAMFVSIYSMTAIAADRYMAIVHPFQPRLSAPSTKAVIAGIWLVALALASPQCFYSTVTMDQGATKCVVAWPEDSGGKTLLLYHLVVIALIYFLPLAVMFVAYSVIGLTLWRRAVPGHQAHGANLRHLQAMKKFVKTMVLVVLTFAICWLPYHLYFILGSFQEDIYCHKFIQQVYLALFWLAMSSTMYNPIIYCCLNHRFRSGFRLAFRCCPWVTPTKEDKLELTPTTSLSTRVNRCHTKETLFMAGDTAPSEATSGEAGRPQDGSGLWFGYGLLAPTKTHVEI

[10] = target: Neurotensin receptor type 1 (Homo sapiens) (UniProt P30989); experiment: Inhibition of human recombinant NTS1 receptor at 10 uM by radioligand binding assay
Chain of Neurotensin receptor type 1 (Homo sapiens) (P30989 whole entry): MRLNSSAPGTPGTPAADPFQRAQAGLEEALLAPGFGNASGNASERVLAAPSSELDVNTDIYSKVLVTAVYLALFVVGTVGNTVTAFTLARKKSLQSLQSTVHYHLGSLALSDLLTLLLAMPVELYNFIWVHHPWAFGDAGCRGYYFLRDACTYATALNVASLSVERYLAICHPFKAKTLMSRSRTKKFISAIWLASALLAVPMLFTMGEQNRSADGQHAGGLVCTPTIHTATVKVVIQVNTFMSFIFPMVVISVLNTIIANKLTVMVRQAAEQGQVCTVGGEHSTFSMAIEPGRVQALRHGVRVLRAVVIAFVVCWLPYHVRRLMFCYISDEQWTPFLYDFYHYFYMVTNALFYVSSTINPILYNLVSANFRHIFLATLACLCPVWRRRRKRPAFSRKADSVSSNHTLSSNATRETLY

[11] = target: T5, 5-hydroxytryptamine receptor 1A (Homo sapiens) (UniProt P08908); experiment: Inhibition of human recombinant 5HT1A receptor at 10 uM by radioligand binding assay
T5 sequence (whole entry): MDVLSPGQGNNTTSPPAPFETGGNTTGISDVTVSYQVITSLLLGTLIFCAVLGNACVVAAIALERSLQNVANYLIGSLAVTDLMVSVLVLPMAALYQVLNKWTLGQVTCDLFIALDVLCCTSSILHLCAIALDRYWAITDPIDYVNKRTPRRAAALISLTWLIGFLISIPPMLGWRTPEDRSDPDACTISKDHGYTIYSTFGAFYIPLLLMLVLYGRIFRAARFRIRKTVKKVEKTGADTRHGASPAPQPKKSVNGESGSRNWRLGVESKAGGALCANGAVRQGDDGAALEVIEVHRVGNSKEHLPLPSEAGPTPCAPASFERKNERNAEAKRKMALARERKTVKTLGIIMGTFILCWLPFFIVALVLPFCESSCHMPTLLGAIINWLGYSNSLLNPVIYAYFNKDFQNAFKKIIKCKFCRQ

[12] = target: Vasopressin V1a receptor (Homo sapiens) (UniProt P37288); experiment: Inhibition of human recombinant V1a receptor at 10 uM by radioligand binding assay
Chain of Vasopressin V1a receptor (Homo sapiens) (P37288 whole entry, looked up): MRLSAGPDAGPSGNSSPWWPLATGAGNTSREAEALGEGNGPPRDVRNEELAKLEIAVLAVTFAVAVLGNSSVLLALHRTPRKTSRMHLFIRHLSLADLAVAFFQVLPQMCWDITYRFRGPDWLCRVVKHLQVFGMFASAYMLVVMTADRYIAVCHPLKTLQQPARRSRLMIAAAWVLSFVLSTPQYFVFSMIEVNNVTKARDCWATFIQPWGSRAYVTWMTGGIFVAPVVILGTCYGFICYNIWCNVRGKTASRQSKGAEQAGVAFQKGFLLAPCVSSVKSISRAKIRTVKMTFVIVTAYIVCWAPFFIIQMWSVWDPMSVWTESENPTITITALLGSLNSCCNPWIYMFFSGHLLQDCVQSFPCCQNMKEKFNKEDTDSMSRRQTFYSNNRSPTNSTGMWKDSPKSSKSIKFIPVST

[13] = test system: Voltage-gated potassium channel; experiment: Inhibition of human recombinant Kv channel at 10 uM by radioligand binding assay; assay type: protein assay
[14] = target: Small conductance calcium-activated potassium channel protein 1 (Homo sapiens) (UniProt Q92952); experiment: Inhibition of human recombinant Skca channel at 10 uM by radioligand binding assay
Chain of Small conductance calcium-activated potassium channel protein 1 (Homo sapiens) (Q92952 whole entry): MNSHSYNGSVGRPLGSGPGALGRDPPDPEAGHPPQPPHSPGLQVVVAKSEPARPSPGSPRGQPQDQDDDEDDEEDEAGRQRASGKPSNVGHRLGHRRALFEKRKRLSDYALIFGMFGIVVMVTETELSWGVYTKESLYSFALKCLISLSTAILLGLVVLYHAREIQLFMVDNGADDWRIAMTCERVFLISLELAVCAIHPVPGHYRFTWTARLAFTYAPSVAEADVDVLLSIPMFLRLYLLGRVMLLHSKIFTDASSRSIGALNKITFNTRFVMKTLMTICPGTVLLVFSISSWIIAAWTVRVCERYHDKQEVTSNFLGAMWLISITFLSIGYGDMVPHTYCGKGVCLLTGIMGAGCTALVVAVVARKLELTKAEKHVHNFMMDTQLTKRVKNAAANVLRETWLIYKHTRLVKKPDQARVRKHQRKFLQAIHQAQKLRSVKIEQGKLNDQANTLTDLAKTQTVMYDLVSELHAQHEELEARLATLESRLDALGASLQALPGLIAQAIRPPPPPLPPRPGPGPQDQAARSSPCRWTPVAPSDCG

Homo sapiens [15] = organism: Homo sapiens; experiment: Inhibition of human recombinant chloride channel at 10 uM by radioligand binding assay
[16] = Inhibition of GSNOR expressed in Escherichia coli using GSNO by cuvette method
[17] = target: Neuropeptide Y receptor type 2 (Homo sapiens) (UniProt P49146); experiment: Inhibition of human recombinant Y2 receptor at 10 uM by radioligand binding assay
Chain of Neuropeptide Y receptor type 2 (Homo sapiens) (P49146 whole entry, looked up): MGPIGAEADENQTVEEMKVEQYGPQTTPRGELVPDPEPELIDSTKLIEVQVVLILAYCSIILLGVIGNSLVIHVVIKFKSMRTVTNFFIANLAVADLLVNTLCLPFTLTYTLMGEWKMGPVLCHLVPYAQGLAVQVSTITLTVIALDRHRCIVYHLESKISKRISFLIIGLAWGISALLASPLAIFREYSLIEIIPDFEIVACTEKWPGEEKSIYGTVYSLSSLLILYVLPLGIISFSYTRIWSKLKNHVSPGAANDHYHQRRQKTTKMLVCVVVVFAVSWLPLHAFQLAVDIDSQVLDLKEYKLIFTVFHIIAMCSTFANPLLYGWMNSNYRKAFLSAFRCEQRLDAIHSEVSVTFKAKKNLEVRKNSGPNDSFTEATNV

[18] = test system: 5-hydroxytryptamine receptor 2A; experiment: Inhibition of human recombinant 5HT2A receptor at 10 uM by radioligand binding assay

| SMILES | inhibition [1] | inhibition [2] | inhibition [3] | inhibition [4] | inhibition [5] | inhibition (Homo sapiens [6]) | inhibition [7] | inhibition [8] | inhibition [9] | inhibition [10] | inhibition [11] | inhibition [12] | inhibition (INH) [13] | inhibition [14] | inhibition (Homo sapiens [15]) | IC50 [16] [nM] | inhibition [17] | inhibition [18] |
| --- | --- | --- | --- | --- | --- | --- | --- | --- | --- | --- | --- | --- | --- | --- | --- | --- | --- | --- |
| Cc1cc(C(N)=O)ccc1-n1c(CCC(=O)O)ccc1-c1ccc(-n2ccnc2)cc1 [N6022] | inactive | inactive | inactive | inactive | inactive | inactive | inactive | inactive | inactive | inactive | inactive | inactive | Not Active | inactive | inactive | 20 | inactive |  |
| Cc1cc(C(N)=O)ccc1-c1c(-c2ccc(-n3ccnc3)cc2)ccn1CCC(=O)O | inactive | inactive | inactive | inactive | inactive | inactive | inactive | inactive | inactive | inactive | inactive | inactive | Not Active | inactive | inactive |  | inactive | inactive |
| Cc1cc(C(N)=O)ccc1-c1c(CCC(=O)O)ccn1-c1ccc(-n2ccnc2)cc1 | inactive | inactive | inactive | inactive | inactive | inactive | inactive | inactive | inactive | inactive | inactive | inactive | Not Active | inactive | inactive |  | inactive | inactive |
| COc1ccc(-c2ccn(-c3ccc(C(=O)O)c(O)c3)c2-c2ccc(C(N)=O)cc2C)cc1 | Active | Active | Active | Active | Active | Active | Active | Active | Active | Active | Active | Active | Active | Active | Active | 280 | Active | Active |
| COc1ccc(-c2ccn(-c3ccc(O)c([N+](=O)[O-])c3)c2-c2ccc(C(N)=O)cc2C)cc1 | Active | Active | Active | Active | Active | Active | Active | Active | Active | Active | Active | Active | Active | Active | Active | 190 | Active | Active |

Reference: ChEMBL document CHEMBL1781986, “Structure-activity relationships of pyrrole based S-nitrosoglutathione reductase inhibitors: pyrrole regioisomers and propionic acid replacement” (Bioorg Med Chem Lett, 2011)
